From patent US20060210627A1, “Direct compression formulation and process” (priority 2005, published 2006)
Each block holds one compound with its values, some of them ahead of it.

Legend:
[1] = Water solubility (statement); type: physicochemical
[2] = Pharmacokinetic drug-drug interaction study of vildagliptin 100 mg qd and metformin 1000 mg qd in patients with type 2 diabetes; type: in vivo; conditions: human, plasma, single oral dose of 100 mg, concomitantly with 1000 mg of metformin
Experimental: Subjects are given an end-of-study evaluation on the last day of period 2 (Day 20). For all treatment periods, subjects fasted for a minimum of 10 hours pre-dose to 4 hours post-dose. Subjects are considered to have completed the study when all safety and pharmacokinetic evaluations have been completed.
The pharmacokinetic profiles are illustrated in FIG. 5.

clinical [3] = conditions: human, plasma, po
clinical [4] = conditions: human, plasma, po; remark: listed apart in the source
[5] = Water sorption/desorption isotherm (dynamic vapor sorption, DVS-1); type: physicochemical; conditions: 25° C.; for moisture gain: at 85% RH
Experimental: Measurements were carried out at 25° C.

water solubility [1]: highly water soluble
AUC(0-t) [2]: 1840 ng·h/mL
Tmax [2]: 2.5 h
AUC(0-inf) (clinical [3]; 25 mg): 461 ± 91 ng·h/mL
AUC(0-t) (clinical [3]; 25 mg): 453 ± 91 ng·h/mL
Cmax (clinical [3]; 25 mg): 117 ± 41 ng/mL
Tmax (clinical [3]; 25 mg, tmax (h) median (min, max), single oral 25 mg FMI tablet, healthy volunteers): 1.5 h
AUC(0-inf) (clinical [3]; 50 mg): 1030 ng·h/mL
AUC(0-t) (clinical [3]; 50 mg): 1020 ± 193 ng·h/mL
Cmax (clinical [3]; 50 mg): 245 ± 87 ng/mL
Tmax (clinical [3]; 50 mg, arithmetic mean tmax of vildagliptin, single oral dose of 50 mg, healthy human subject): 2.1 h
Tmax (clinical [3]; 50 mg, tmax (h) median (min, max), single oral 50 mg FMI tablet, healthy volunteers): 1.5 h
AUC(0-inf) (clinical [3]; 100 mg): 2350 ng·h/mL
AUC(0-t) (clinical [3]; 100 mg): 2330 ± 278 ng·h/mL
Tmax (clinical [3]; 100 mg, arithmetic mean tmax of vildagliptin, single oral dose of 100 mg, healthy human subject): 2 h
Tmax (clinical [3]; 100 mg, tmax (h) median (min, max), single oral 100 mg FMI tablet, healthy volunteers): 1.75 h
AUC(0-inf) (clinical [3]; 200 mg): 5080 ± 721 ng·h/mL
AUC(0-t) (clinical [3]; 200 mg): 5060 ± 722 ng·h/mL
Cmax (clinical [3]; 200 mg): 1100 ± 280 ng/mL
Tmax (clinical [3]; 200 mg, tmax (h) median (min, max), single oral 200 mg FMI tablet, healthy volunteers): 1.25 h
Tmax (clinical [4]): 1 h
SMILES: N#C[C@@H]1CCCN1C(=O)CNC12CC3CC(CC(O)(C3)C1)C2 [vildagliptin, (S)-1-[(3-hydroxy-1-adamantyl)amino]acetyl-2-cyano-pyrrolidine]

hygroscopicity [5]: only very slightly hygroscopic
moisture gain [5]: 0.9%
SMILES: N#C[C@@H]1CCCN1C(=O)CNC12CC3CC(CC(O)(C3)C1)C2 [Crystalline vildagliptin Form A, 1-[(3-Hydroxy-adamant-1-ylamino)-acetyl]-pyrrolidine-2(S)-carbonitrile]

hygroscopicity [5]: hygroscopic
moisture gain [5]: 4.2%
SMILES: N#C[C@@H]1CCCN1C(=O)CNC12CC3CC(CC(O)(C3)C1)C2 [vildagliptin amorphous form]
